Entries after “also recorded” stand apart in the source; their conditions may differ. Peptide text beside a SMILES is read from it.
Assays:
[1] = molecular target: T1, IL-23R (Mus musculus, UniProt Q8K4B4); assay: IL-23-induced STAT3 phosphorylation in freshly isolated splenocytes (Alpha Screen SureFire p-STAT-3); format: cell-based; conditions: freshly isolated splenocytes; listed as APG-2309
T1 construct: Spleens were sterilely removed from mice, sliced, and mashed in the presence of PBS buffer; from tissue; host or cells: mouse spleen: freshly isolated splenocytes, and CD4+ cells differentiated into TH17 cells
T1 sequence (Q8K4B4 24-644): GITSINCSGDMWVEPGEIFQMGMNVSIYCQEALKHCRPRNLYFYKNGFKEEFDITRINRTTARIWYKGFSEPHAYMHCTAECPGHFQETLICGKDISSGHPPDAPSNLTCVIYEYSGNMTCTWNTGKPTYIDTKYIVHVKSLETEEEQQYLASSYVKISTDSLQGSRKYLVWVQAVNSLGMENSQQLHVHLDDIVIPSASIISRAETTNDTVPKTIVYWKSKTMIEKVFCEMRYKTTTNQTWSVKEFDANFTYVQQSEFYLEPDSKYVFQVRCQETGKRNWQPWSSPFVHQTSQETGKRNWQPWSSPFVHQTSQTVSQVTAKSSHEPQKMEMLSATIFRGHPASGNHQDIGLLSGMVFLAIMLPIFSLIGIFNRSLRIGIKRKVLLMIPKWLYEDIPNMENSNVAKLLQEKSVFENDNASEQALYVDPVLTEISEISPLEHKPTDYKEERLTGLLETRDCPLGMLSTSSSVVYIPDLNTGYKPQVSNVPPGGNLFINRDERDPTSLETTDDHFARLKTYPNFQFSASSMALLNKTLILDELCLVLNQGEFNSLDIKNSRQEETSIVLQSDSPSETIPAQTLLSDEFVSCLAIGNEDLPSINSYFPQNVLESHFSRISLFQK
Procedure: Spleens were sterilely removed from mice, sliced, and mashed in the presence of PBS buffer, 2% fetal bovine serum, and 1 mM EDTA. Tissue was allowed to pass through a number 26 syringe and was filtered through a 70 μm mesh nylon strainer. Cells were cultured with non-essential amino acids, 2 μg/ml of anti-CD3, and 20 μg/ml of anti-CD-28 as survival and differentiation factors.
(§1) Splenocytes or TH17 cells were distributed in 384-well plates (Optiplate; Perkin Elmer) (100,000 cells/well). Cells were pre-incubated for 30 minutes with different concentrations of peptide APG-2305 or APG-2309 and incubated with 25 ng/ml of IL-23 (R&D systems) for 10 minutes. STAT3 phosphorylation was determined with the kit Alpha Screen SureFire p-STAT-3 assay from Perkin Elmer according to manufacturer's instructions. Briefly, after incubation with IL-23, cells were lysed and contacted with (1) protein A acceptor conjugated beads coated with anti-p-STAT-3 (Tyr705) and (2) streptavidin-coated donor beads. The resulting signal was measured with a Perkin Elmer Wallac En vision 2104 Multilabel reader. Graphs were generated using GraphPrism 4 software.
The effect of peptide APG-2305 and APG-2309 derivatives on IL-23-induced STAT3 phosphorylation was determined using CD-1 mice freshly isolated splenocytes and the Alpha Screen p-STAT3 assay (see above materials and methods) (FIGS. 6 and 7). […] As described herein, based on the efficacy of derivatives, we have identified regions in APG-2305 and APG-2309 peptides that are important for their ability to affect IL-23R activity.

[2] = molecular target: T1, IL-23R; assay: IL-23-induced STAT3 phosphorylation in differentiated TH17 cells (Alpha Screen SureFire p-STAT-3); format: cell-based; conditions: listed as APG-2309
Procedure: CD4+ cells were isolated from 2.5×10^8 splenocytes with the EasySep isolation kit (StemCell Technologies) according to the manufacturer's instructions. CD4+ cells were incubated overnight with non-essential amino acids and anti-CD3 and CD28 antibodies (see above). The next day the cells were split into 12-well plates (1-2×10^6 cells/well) and incubated with complete RPMI medium (10% FBS, Pen/Strep, and non-essential amino acids (1×)) and a differentiation cocktail containing 2 μg/ml of anti-CD3, 2 μg/ml of anti-CD28, 5 ng/ml of TGFb1, 20 ng/ml of IL-6, 10 ng/ml of IL-23, 2 μg/ml of anti-rat anti IFNγ and 10 μg/ml of anti-mouse IL-4 (final concentrations).
as §1, with “Graphs were generated using GraphPrism 4 software.” left out

[3] = tested on: PMA-induced ear edema; assay: PMA-induced ear edema, enteral (oral) administration; format: in vivo, rats; conditions: 20 mg/kg administered orally
Procedure: FIGS. 13A and 13B are graphs showing the effect of peptides APG-2305 (FIG. 13A) and APG-2309 (FIG. 13B) on PMA-induced inflammation. Intraperitoneal administration is abreviated “i.p.” and oral administration is abreviated “p.o.” Peptides APG-2305 and APG-2309 were also given by enteral administration to rats to verify their oral availability. The peptides at various concentrations were injected (twice a day; 200 μl) into the stomach with a gavage needle (Number 20) starting at day 2 of PMA treatment. On day 4 the total peptide dose was given as a bolus and animals were sacrificed 4-6 hours later. […] Scrambled peptide of APG-2305 (5 mg/kg/day) and intraperitoneal APG-2305 served as negative and positive controls respectively. APG-2309 was also injected enterally but inhibit PMA-induced ear edema only slightly at 20 mg/kg administered orally (FIG. 13B). APG-2309 is more hydrophobic than APG-2305.

- effect on IL-23-induced STAT3 phosphorylation [1]: inhibit; also recorded: showed efficacy
- effect on IL-23-induced STAT3 phosphorylation [2]: inhibit; also recorded: showed efficacy
SMILES: CSCC[C@@H](N)C(=O)N[C@H](CCC(=O)O)C(=O)N[C@H](CCC(=O)O)C(=O)N[C@H](CO)C(=O)N[C@H](CCCCN)C(=O)N[C@H](CCC(N)=O)C(=O)N[C@H](CC(C)C)C(=O)N[C@H](CCC(N)=O)C(=O)N[C@H](CC(C)C)C(=O)O [Peptide 2309, MEESKQLQL] (HELM PEPTIDE1{[dM].[dE].[dE].[dS].[dK].[dQ].[dL].[dQ].[dL]}$$$$V2.0; N-terminus and C-terminus assumed)
- PMA-induced ear edema [3]: only slightly

— patent publication US20100190710A1, “IL-23 RECEPTOR ANTAGONISTS AND USES THEREOF” (Valorisation HSJ, Societe en Commandite, priority 2007, published 2010)
